Assay results published in patent EP4450494A1, “INDOLE DERIVATIVES AS HISTONE DEACETYLASE (HDAC) INHIBITORS FOR THE TREATMENT OF CANCER” (Consejo Superior De Investigaciones Científicas, priority 2023, dated 2024).

Experiments:
Type in all cases: cell-based
HDAC6 = target: T1, HDAC6 (Homo sapiens, UniProt Q9UBN7); assay: Western blot of HDAC6 and acetylated α-tubulin in treated U87 cells; conditions: 48 h, effect higher with increasing concentrations
T1 construct: endogenous in cells; host or cells: U87 glioblastoma cell line
T1 sequence (Q9UBN7 1-1215): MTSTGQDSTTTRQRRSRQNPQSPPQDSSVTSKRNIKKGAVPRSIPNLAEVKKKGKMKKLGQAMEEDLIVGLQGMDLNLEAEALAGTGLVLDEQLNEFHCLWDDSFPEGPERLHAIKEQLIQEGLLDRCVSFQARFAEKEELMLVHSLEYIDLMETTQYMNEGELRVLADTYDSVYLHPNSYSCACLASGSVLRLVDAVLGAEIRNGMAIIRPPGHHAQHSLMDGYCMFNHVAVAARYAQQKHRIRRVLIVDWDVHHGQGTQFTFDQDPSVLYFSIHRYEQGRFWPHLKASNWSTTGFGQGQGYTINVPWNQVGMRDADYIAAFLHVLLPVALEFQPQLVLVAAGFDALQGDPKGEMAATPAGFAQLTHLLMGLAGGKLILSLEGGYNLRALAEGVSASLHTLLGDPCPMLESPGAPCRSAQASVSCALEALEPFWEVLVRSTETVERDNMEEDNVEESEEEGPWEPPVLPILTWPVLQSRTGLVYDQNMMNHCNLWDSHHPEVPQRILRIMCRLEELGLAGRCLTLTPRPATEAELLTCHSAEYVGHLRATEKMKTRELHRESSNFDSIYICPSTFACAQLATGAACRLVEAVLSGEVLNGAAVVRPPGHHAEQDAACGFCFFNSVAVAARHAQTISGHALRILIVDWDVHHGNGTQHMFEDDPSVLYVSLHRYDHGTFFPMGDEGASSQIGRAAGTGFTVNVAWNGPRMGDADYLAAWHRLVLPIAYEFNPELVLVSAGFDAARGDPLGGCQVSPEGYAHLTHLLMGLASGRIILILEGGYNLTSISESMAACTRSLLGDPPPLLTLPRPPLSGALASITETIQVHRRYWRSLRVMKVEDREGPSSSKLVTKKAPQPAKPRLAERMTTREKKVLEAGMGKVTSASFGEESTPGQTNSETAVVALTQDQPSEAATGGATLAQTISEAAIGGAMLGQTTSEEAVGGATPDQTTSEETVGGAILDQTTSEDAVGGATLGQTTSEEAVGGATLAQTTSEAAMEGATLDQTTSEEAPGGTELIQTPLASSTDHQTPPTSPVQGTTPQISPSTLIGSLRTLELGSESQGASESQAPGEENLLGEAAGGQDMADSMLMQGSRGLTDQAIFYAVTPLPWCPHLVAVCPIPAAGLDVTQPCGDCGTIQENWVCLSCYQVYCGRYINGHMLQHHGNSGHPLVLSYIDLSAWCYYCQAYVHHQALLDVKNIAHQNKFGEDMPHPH
Procedure: Basing on the IC50 values, DDI199, MTP142, MTP156, MTP150, FRB44 and FRB56 were selected for further studies, as they seem to be the most promising compounds (see figure 1). Thus, the capacity of these compounds as HDAC inhibitors was tested. […] For this, specific antibodies against HDAC6 and HDAC1, and acetylated α-tubulin and acetylated histone H3 were used, and β-actin was included as control. Secondary antibodies were horseradish peroxidase (HRP)-linked anti-rabbit and anti-mouse and detection was performed by chemiluminiscence with NOVEX ECL Chemi Substrate.

[1] = system: U87 glioblastoma cell line; assay: MTT cell viability dose-response assay in U87; conditions: MTT assay after 72 h of treatment
Procedure: (§1) As a first screening, dose-response assays were done in U87 glioblastoma cell line in order to obtain the IC50 values of the different compounds. Cells were seeded at a density of 1.500 cells/well in 96-well plates, incubated overnight and treated with increasing concentrations of the corresponding compounds. After 72 h of treatment, cell viability was determined by MTT assay. For this, MTT was added to the wells and cells were incubated for 3,5 h at 37 °C and 5% CO2. Then, media was removed and DMSO was added to resuspend the formed crystals. Absorbance at 570 nm was measured using a spectrophotometer, and GraphPad Prism software was used to analyze the results and calculate the IC50 values.

U251 = assay: MTT cell viability assay in U251; conditions: Homo sapiens, U-251, MTT assay after 72 h of treatment
Procedure: as §1
(§2) With this aim, additional MTT assays were carried out following the same protocol in other glioblastoma conventional (U251) and patient-derived (GNS179) cell lines. […]

GNS179 = assay: MTT cell viability assay in GNS179; conditions: GNS179 (patient-derived); MTT assay after 72 h of treatment
Procedure: as §1, §2

[2] = system: conventional (U251) and patient-derived (GNS166 and GNS179) cell lines; assay: Immunofluorescence for phosphohistone H3 (proliferation) in additional glioblastoma cell lines; conditions: dose-dependent
Procedure: (§3) For this, U87 cells were incubated for 48 h with increasing concentrations of the compounds. After that, cells were incubated with phosphohistone H3 or caspase-3 antibodies for the study of proliferation or apoptosis, respectively. Alexa Fluor 555 IgG anti-mouse and anti-rabbit secondary antibodies were used, and nuclear DNA was stained with DAPI. Pictures were taken with an Eclipse 80i microscope.
(§4) Furthermore, immunofluorescence assays for DDI199 were completed in additional conventional (U251) and patient-derived (GNS166 and GNS179) cell lines.

[3] = system: conventional (U251) and patient-derived (GNS166 and GNS179) cell lines; assay: Immunofluorescence for caspase-3 (apoptosis) in additional glioblastoma cell lines; conditions: dose-dependent
Procedure: as §3, §4

SMILES | HDAC6 inhibitory capacity (HDAC6) | IC50 [1] | IC50 (U251) | IC50 (GNS179) | cell proliferation (PH3 positive cells) [2] | apoptosis (caspase-3 positive cells) [3]
COc1ccc2c(ccn2S(=O)(=O)c2cccc(/C=C/C(=O)NO)c2)c1 [MTP142, (E)-N-Hydroxy-3-(3-((5-methoxy-1H-indol-1-yl)sulfonyl)phenyl)acrylamide] | inhibits HDAC6, although this effect is much slighter than that for DDI199 |  |  |  |  | 
C#CCN(Cc1cc2cc(OCCCN3CCCCC3)ccc2n1S(=O)(=O)c1ccccc1)C(=O)CCCCCCC(=O)NO [DDI199, N1-Hydroxy-N8-((1-(phenylsulfonyl)-5-(3-(piperidin-1-yl)propoxy)-1H-indol-2-yl)methyl)-N8-(prop-2-yn-1-yl)octanediamide] | high HDAC6 inhibitory capacity | 3.23 µM | 5.45 µM | 4.33 µM | significantly reduces cell proliferation | induces apoptosis
